According to ChEMBL document CHEMBL3639058, “Glycine compound” (2014):
pIC50: −log10 of the molar value.

Key:
[1] = biological target: T1, Amine oxidase [copper-containing] 3 (Rattus norvegicus, UniProt O08590); test: (§1) Inhibition Assay: A rat VAP-enzyme 1 (SSAO) activity was measured by a radiochemistry-enzymatic assay using 14C-benzylamine as an artificial substrate. An enzyme suspension prepared from CHO (Chinese Hamster Ovary) cells stably expressing a rat VAP-enzyme 1 (SSAO) was preincubated with the compound of the present invention in a 96-well microplate at room temperature for 30 minutes. Subsequently, the enzyme suspension was incubated with 14C-benzylamine (a final concentration of 1×10−5 mol/L) to a final volume of […] at 37° C. for 1 hour. The enzymatic reaction was stopped by the addition of 2 mol/L (50 μL) of citric acid. The oxidation products were extracted directly in a 200-μL toluene scintillator, and the radioactivity was measured with a scintillation spectrometer.
T1 sequence (O08590 whole entry): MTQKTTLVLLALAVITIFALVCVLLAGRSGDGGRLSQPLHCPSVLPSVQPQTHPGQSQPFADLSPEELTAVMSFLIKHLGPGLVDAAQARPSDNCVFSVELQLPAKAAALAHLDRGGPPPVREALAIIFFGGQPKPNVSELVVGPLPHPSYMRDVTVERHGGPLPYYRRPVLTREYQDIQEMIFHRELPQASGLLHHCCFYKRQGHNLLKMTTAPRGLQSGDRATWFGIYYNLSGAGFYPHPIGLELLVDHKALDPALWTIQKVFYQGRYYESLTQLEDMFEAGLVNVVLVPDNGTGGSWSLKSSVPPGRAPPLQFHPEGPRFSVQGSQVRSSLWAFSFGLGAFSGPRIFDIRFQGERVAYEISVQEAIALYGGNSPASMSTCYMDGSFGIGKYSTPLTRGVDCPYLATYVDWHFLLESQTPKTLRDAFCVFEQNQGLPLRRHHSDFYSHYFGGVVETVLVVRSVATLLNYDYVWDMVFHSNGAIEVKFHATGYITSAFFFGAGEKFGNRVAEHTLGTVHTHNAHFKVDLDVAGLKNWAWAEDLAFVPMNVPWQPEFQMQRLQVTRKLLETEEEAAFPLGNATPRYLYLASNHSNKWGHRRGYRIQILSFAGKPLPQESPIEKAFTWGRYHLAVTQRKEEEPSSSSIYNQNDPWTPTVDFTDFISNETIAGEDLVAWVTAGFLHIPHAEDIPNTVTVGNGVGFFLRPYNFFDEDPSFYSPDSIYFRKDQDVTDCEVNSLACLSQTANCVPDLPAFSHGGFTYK

[2] = biological target: T2, Amine oxidase [copper-containing] 3 (Homo sapiens, UniProt Q16853); test: as §1, with “human VAP-1 enzyme” for “rat VAP-enzyme 1”
T2 sequence (Q16853 whole entry): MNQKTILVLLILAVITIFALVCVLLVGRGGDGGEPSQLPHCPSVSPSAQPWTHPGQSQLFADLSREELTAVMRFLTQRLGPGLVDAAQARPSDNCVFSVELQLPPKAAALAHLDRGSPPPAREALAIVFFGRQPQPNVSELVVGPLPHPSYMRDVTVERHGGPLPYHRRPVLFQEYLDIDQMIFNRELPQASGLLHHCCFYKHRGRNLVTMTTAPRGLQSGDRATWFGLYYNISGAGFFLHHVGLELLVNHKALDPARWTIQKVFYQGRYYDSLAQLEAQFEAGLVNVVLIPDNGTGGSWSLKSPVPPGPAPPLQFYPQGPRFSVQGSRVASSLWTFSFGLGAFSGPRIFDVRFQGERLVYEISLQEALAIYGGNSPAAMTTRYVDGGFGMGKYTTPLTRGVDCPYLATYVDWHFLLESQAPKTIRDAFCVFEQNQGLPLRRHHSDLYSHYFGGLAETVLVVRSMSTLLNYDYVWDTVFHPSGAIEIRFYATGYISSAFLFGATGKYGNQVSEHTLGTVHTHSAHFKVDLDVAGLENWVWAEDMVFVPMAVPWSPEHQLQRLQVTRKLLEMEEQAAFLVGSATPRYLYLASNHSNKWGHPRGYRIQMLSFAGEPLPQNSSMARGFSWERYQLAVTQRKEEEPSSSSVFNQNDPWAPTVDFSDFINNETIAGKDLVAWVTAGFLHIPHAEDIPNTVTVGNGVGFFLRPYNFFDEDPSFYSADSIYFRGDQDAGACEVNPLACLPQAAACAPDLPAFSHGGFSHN

SMILES	pIC50 [1]	pIC50 [2]
Cc1cc(CCC(=O)O)cnc1N1CCN(c2ncc(-c3cccc(CN(C)C(=O)CN)c3)cn2)CC1	8.28	8.03
C[C@@H]1CN(c2ncc(-c3cccc(CN(C)C(=O)CN)c3)cn2)C[C@H](C)O1	7.21	
